Results published in ChEMBL document CHEMBL4680193, “Isoindoline scaffold-based dual inhibitors of HDAC6 and HSP90 suppressing the growth of lung cancer in vitro and in vivo” (Eur J Med Chem, 2020).
Active and inactive are the calls of the source. The calls are words filed in the database; no cut-off is given here.

Key:
A549 = experiment: Growth inhibition of human A549 cells incubated for 48 hrs by SRB assay; assay type: functional
NCI-H1975 [1] = experiment: cells; assay type: functional; conditions: Homo sapiens, time 48 hrs
[2] = target: Heat shock protein HSP 90-alpha (Homo sapiens, UniProt P07900); experiment: Inhibition of HSP90a (unknown origin)
Histone deacetylase = assay type: tissue-based, Homo sapiens; conditions: hela
Histone deacetylase 1 = Histone deacetylase 1 (Homo sapiens, UniProt Q13547); experiment: Inhibition of recombinant human C-terminal FLAG-His-tagged HDAC1 (1 to 482 residues) expressed in Sf21 cells using RHK-K(Ac)-AMC as substrate incubated for 60 mins by fluorimetry analysis
Histone deacetylase 3 = Histone deacetylase 3 (Homo sapiens, UniProt O15379)
[3] = target: T1, Protein deacetylase HDAC6 (Homo sapiens, UniProt Q9UBN7); experiment: Inhibition of recombinant human HDAC6 using RHK-K(Ac)-AMC as substrate by fluorescence based assay
T1 sequence (Q9UBN7 whole entry): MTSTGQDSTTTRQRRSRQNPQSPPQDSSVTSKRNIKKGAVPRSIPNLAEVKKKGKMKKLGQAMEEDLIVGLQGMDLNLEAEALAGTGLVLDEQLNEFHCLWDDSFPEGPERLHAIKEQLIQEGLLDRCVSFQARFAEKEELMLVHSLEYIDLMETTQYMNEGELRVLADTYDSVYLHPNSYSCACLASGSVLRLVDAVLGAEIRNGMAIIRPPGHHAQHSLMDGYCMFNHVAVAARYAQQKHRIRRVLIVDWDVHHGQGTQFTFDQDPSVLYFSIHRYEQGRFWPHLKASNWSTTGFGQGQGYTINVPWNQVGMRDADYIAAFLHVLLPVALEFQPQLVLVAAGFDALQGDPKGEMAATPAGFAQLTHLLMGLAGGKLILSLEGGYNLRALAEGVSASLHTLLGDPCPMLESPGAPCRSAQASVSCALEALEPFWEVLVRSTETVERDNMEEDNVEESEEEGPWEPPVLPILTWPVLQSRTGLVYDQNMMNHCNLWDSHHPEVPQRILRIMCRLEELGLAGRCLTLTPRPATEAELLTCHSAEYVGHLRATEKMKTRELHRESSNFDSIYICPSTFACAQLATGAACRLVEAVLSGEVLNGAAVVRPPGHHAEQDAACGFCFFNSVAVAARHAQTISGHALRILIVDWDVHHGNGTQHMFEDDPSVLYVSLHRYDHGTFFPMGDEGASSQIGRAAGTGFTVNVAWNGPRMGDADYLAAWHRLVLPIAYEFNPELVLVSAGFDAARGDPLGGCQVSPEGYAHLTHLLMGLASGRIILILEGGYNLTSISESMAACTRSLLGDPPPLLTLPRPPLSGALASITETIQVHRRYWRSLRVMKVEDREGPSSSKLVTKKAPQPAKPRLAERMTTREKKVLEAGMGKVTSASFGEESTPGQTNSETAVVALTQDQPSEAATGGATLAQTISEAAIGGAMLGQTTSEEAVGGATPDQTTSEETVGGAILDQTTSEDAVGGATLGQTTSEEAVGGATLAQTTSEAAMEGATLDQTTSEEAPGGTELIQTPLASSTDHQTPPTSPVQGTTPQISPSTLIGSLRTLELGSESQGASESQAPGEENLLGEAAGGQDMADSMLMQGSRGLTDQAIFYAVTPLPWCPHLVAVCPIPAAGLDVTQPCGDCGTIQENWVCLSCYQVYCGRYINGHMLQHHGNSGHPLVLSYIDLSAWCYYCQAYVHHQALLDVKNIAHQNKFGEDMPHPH

Histone deacetylase 8 = target: T2, Histone deacetylase 8 (Homo sapiens, UniProt Q9BY41); experiment: Inhibition of recombinant human HDAC8 using RHK-K(Ac)-AMC as substrate by fluorescence based assay
T2 sequence (Q9BY41 whole entry): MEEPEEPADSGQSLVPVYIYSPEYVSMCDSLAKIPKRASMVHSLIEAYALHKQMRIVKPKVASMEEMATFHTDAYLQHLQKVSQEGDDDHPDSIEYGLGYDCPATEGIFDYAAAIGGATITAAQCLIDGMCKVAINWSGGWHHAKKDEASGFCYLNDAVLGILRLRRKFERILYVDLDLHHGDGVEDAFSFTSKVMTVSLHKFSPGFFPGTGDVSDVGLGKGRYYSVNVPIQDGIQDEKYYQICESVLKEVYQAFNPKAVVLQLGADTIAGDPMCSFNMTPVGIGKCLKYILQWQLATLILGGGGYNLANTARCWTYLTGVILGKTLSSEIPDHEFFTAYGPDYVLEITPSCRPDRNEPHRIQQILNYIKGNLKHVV

Homo sapiens [4] = organism: Homo sapiens; experiment: Selectivity index, ratio of IC50 for recombinant human C-terminal FLAG-His-tagged HDAC1 (1 to 482 residues) expressed in Sf21 cells to IC50 for recombinant human HDAC6
Homo sapiens [5] = organism: Homo sapiens; experiment: Selectivity index, ratio of IC50 for recombinant human HDAC3 to IC50 for recombinant human HDAC6
Homo sapiens [6] = organism: Homo sapiens; experiment: Selectivity index, ratio of IC50 for recombinant human HDAC8 to IC50 for recombinant human HDAC6
NCI-H1975 [7] = experiment: Antitumor activity against human NCI-H1975 cells xenografted in BALB/c mouse assessed as reduction in tumor growth at 20 mg/kg, ip administered for 2 weeks and measured after 2 week relative to control; assay type: functional; conditions: 336 h, read-out: TGI
[8] = target: T3, Heat shock protein HSP90 (Homo sapiens) (UniProt P07900+P08238); experiment: Inhibition of HSP90 in human NCI-H1975 cells assessed as decrease in Akt Ser473 phosphorylation at 1 to 3 uM measured after 24 hrs by Western blot analysis; assay type: cell-based; conditions: dose 1-3 µM
[9] = target: T3, Heat shock protein HSP90 (Homo sapiens); experiment: Inhibition of HSP90 in human NCI-H1975 cells assessed as decrease in STAT3 Tyr705 phosphorylation at 1 to 3 uM measured after 24 hrs by Western blot analysis; assay type: cell-based; conditions: dose 1-3 µM

Histone deacetylase 1, sequence (Q13547 whole entry, the tested form may be a part): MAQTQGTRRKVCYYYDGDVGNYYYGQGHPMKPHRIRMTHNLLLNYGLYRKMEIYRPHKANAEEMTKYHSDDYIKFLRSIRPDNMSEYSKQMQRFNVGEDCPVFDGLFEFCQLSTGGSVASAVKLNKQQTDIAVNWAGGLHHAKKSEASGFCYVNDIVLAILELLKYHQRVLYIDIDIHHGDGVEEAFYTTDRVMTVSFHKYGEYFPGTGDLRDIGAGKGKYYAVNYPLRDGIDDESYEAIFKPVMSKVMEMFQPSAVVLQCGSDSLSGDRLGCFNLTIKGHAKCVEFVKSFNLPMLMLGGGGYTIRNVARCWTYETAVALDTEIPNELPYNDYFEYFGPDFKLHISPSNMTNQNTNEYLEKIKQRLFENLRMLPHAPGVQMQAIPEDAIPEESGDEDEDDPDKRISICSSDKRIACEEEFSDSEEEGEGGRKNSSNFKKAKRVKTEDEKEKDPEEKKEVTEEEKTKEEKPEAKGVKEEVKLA
Histone deacetylase 3, sequence (O15379 whole entry): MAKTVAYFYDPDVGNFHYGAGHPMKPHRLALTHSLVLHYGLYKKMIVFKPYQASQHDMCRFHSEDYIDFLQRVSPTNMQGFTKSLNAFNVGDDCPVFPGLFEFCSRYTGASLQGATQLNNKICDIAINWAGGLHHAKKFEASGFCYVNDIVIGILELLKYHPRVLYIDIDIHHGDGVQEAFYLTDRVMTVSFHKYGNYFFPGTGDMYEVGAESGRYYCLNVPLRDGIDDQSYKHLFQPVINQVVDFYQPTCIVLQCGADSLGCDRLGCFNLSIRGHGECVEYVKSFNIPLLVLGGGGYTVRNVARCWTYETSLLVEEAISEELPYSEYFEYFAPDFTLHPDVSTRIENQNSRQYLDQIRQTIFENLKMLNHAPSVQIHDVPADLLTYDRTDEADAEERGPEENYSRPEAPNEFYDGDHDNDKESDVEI

| SMILES | GI50 (A549; Homo sapiens, A549) [nM] | GI50 (NCI-H1975 [1]) [nM] | IC50 [2] [nM] | IC50 (Histone deacetylase) [nM] | IC50 (Histone deacetylase 1) [nM] | IC50 (Histone deacetylase 3) [nM] | IC50 [3] [nM] | IC50 (Histone deacetylase 8) [nM] | Ratio IC50 (Homo sapiens [5]) | Ratio IC50 (Homo sapiens [6]) | inhibition [8] | inhibition [9] | Ratio IC50 (Homo sapiens [4]) | inhibition in vivo at 20 mg/kg (NCI-H1975 [7]) [%] | GI50 (A549) [nM] |
| --- | --- | --- | --- | --- | --- | --- | --- | --- | --- | --- | --- | --- | --- | --- | --- |
| COc1c(C)cnc(Cn2cnc3c(Cl)nc(N)nc32)c1C [BIIB021] | 330 | 200 | – | > 1000 | – | – | – | – | – | – | – | – | – | – | – |
| CC(C)c1cc(C(=O)N2Cc3ccc(NC(=O)CCCCCC(=O)NO)cc3C2)c(O)cc1O | 2220 | 680 | 43.9 | 521.4 | 3810 | 2210 | 9.44 | 2010 | 234 | 213 | – | – | 404 | – | – |
| CN(C)C/C=C/C(=O)Nc1cc2c(Nc3ccc(F)c(Cl)c3)ncnc2cc1O[C@H]1CCOC1 [AFATINIB] | – | – | – | – | – | – | – | – | – | – | – | – | – | 63.8 | – |
| O=C(CCCCCCC(=O)Nc1ccccc1)NO [VORINOSTAT] | – | – | > 1000 | – | – | – | – | – | – | – | – | – | – | – | 1020 |
| CC(C)c1cc(C(=O)N2Cc3ccc(NC(=O)CCCCCCC(=O)NO)cc3C2)c(O)cc1O | 2920 | 434000 | 43.9 | 1683 | 554 | 388 | 2.21 | 1510 | 175 | 683 | – | – | 250 | – | – |
| CC(C)c1cc(C(=O)N2Cc3ccc(NC(=O)CCCCCCCC(=O)NO)cc3C2)c(O)cc1O | 235000 | 1070 | 422 | 198.9 | 1080 | 494 | 2.12 | > 10000 | 233 | > 4720 | – | – | 507 | – | – |

Further lines, with some results ahead:

| GI50 (A549; Homo sapiens, A549) [nM] | GI50 (NCI-H1975 [1]) [nM] | IC50 [2] [nM] | IC50 (Histone deacetylase) [nM] | IC50 (Histone deacetylase 1) [nM] | IC50 (Histone deacetylase 3) [nM] | IC50 [3] [nM] | IC50 (Histone deacetylase 8) [nM] | Ratio IC50 (Homo sapiens [5]) | Ratio IC50 (Homo sapiens [6]) | inhibition [8] | inhibition [9] | SMILES | Ratio IC50 (Homo sapiens [4]) | inhibition in vivo at 20 mg/kg (NCI-H1975 [7]) [%] | GI50 (A549) [nM] |
| --- | --- | --- | --- | --- | --- | --- | --- | --- | --- | --- | --- | --- | --- | --- | --- |
| 370 | 130 | 66 | > 1000 | > 10000 | 9850 | 33.3 | 420 | 296 | 12.6 | – | – | CC(C)c1cc(C(=O)N2Cc3ccc(NCc4ccc(C(=O)NO)cc4)cc3C2)c(O)cc1O | > 300 | – | – |
| 2740 | 32000 | 104 | > 1000 | 3150 | 3990 | 303 | 675 | 13.2 | 2.2 | – | – | CC(C)c1cc(C(=O)N2Cc3ccc(/C=C/C(=O)NO)cc3C2)c(O)cc1O | 10.4 | – | – |
| 870 | 1640 | 109 | > 1000 | 6880 | 2810 | 330 | 7420 | 8.5 | 22.5 | – | – | CC(C)c1cc(C(=O)N2Cc3ccc(NC(=O)CCCCC(=O)NO)cc3C2)c(O)cc1O | 20.8 | – | – |
| > 10000 | > 10000 | 136 | > 1000 | 7430 | 4410 | 68.6 | – | 64.3 | – | – | – | CC(C)c1cc(C(=O)N2Cc3ccc(NC(=O)CCCC(=O)NO)cc3C2)c(O)cc1O | 108 | – | – |
| 830 | 39000 | 123 | > 1000 | – | – | > 10000 | 7320 | – | – | – | – | CC(C)c1cc(C(=O)N2Cc3ccc(NC(=O)CCC(=O)NO)cc3C2)c(O)cc1O | – | – | – |
| – | – | – | – | – | – | – | – | – | – | Active | Active | CC(C)c1cc(C(=O)N2Cc3ccc(NCc4ccc(CN5CCN(C)CC5)cc4)cc3C2)c(O)cc1O | – | – | – |
